From ChEMBL document CHEMBL2417463, “Synthesis and identification of new flavonoids targeting liver X receptor β involved pathway as potential facilitators of Aβ clearance with reduced lipid accumulation” (J Med Chem, 2013)
Activity calls are given as the source filed them. The rule behind the calls is not given here.

Experiments:
Assay type in all cases: cell-based
[1] = target: T1, Oxysterols receptor LXR-beta (Mus musculus) (UniProt Q60644); test: Agonist activity at LXRbeta in mouse RAW264.7 cells assessed as induction of ABCA1 promoter activation at 1 uM after 24 hrs by Dual-Glo luciferase reporter gene assay relative to vehicle-treated control
T1 sequence (whole entry): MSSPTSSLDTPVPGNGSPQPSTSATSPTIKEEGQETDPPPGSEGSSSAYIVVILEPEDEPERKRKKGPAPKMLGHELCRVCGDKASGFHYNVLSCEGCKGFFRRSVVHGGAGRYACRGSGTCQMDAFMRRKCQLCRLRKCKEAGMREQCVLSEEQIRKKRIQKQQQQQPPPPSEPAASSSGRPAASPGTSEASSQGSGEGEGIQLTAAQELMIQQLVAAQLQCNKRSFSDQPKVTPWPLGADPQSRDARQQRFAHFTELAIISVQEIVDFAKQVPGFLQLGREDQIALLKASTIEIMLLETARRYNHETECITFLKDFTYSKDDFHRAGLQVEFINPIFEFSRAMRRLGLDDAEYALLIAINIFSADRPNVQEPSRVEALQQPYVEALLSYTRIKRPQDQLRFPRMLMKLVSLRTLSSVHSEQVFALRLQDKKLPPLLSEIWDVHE

[2] = target: T1, Oxysterols receptor LXR-beta (Mus musculus); test: Agonist activity at LXRbeta in mouse BV2 cells assessed as degradation of intracellular soluble amyloid beta42 at 1 uM preincubated for 18 hrs followed by soluble amyloid beta42 addition measured after 24 hrs by ELISA relative to vehicle-treated control; details: BV-2
[3] = target: T2, Oxysterols receptor LXR-beta (Homo sapiens) (UniProt P55055); test: Agonist activity at human LXRbeta transfected in HEK293 cells at 0.1 uM after 24 hrs by luciferase reporter gene assay relative to vehicle-treated control
T2 sequence (whole entry): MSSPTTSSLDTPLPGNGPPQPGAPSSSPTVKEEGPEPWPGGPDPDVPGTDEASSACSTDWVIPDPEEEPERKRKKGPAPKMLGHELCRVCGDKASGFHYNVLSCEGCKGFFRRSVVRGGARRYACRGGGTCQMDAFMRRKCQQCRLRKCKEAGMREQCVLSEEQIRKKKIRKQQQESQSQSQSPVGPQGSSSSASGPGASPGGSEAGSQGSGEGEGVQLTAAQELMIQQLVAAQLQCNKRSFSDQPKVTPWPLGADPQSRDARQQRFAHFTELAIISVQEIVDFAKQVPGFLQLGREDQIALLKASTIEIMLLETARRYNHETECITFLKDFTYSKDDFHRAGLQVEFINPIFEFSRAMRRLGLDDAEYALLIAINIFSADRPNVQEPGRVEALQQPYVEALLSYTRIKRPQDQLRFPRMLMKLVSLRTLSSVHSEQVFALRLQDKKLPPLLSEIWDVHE

[4] = target: T3, Oxysterols receptor LXR-alpha (Homo sapiens) (UniProt Q13133); test: Agonist activity at human LXRalpha transfected in HEK293 cells at 1 uM after 24 hrs by luciferase reporter gene assay relative to vehicle-treated control
T3 sequence (whole entry): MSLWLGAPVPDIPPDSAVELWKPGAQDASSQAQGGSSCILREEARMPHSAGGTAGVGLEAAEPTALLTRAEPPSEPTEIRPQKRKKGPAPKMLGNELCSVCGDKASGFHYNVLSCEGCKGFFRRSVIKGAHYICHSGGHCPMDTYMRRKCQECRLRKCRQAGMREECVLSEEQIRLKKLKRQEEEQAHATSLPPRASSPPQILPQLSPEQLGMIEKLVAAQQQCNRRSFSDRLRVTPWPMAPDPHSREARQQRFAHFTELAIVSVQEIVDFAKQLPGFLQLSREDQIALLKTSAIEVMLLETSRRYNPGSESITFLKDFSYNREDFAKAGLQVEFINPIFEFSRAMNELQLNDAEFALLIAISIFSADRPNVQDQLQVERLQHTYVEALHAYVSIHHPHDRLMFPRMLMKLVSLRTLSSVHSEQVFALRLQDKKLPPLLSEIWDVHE

[5] = target: T3, Oxysterols receptor LXR-alpha (Homo sapiens); test: Agonist activity at human LXRalpha transfected in HEK293 cells at 0.1 uM after 24 hrs by luciferase reporter gene assay relative to vehicle-treated control
[6] = target: T1, Oxysterols receptor LXR-beta (Mus musculus); test: Agonist activity at LXRbeta in mouse RAW264.7 cells assessed as induction of ABCA1 promoter activation after 24 hrs by Dual-Glo luciferase reporter gene assay
HEK293 = test: Cytotoxicity against HEK293 cells assessed as inhibition of cell viability at 50 uM after 48 hrs by SRB assay relative to vehicle-treated control; details: human, hek293, 48 h
HepG2 [7] = test: Cytotoxicity against human HepG2 cells assessed as inhibition of cell viability at 50 uM after 48 hrs by SRB assay relative to vehicle-treated control; details: hepg2, 48 h, 50 µM
BV-2 = test: Cytotoxicity against mouse BV2 cells assessed as inhibition of cell viability at 50 uM after 48 hrs by SRB assay relative to vehicle-treated control; details: bv-2, 48 h
RAW264.7 = test: Cytotoxicity against mouse RAW264.7 cells assessed as inhibition of cell viability at 50 uM after 48 hrs by SRB assay relative to vehicle-treated control; details: raw264.7, 48 h
HepG2 [8] = test: Induction of cytoplasmic lipid accumulation in human HepG2 cells at 10 uM after 4 days by oil red O staining-based light microscopic analysis; details: hepg2, 96 h
HepG2 [9] = test: Induction of intracellular triglyceride accumulation in human HepG2 cells at 10 uM after 4 days relative to vehicle-treated control; details: hepg2, 96 h
HepG2 [10] = test: Induction of intracellular triglyceride accumulation in human HepG2 cells at 1 uM after 4 days relative to vehicle-treated control; details: hepg2, 96 h
[11] = target: T1, Oxysterols receptor LXR-beta (Mus musculus); test: Agonist activity at LXRbeta in mouse BV2 cells assessed as degradation of intracellular soluble amyloid beta42 at 0.1 uM preincubated for 18 hrs followed by soluble amyloid beta42 addition measured after 24 hrs by ELISA relative to vehicle-treated control; details: BV-2
[12] = target: T1, Oxysterols receptor LXR-beta (Mus musculus); test: Agonist activity at LXRbeta in mouse BV2 cells assessed as degradation of intracellular amyloid beta42 preincubated for 18 hrs followed by soluble amyloid beta42 addition measured after 24 hrs by ELISA; details: BV-2
[13] = target: T1, Oxysterols receptor LXR-beta (Mus musculus); test: Agonist activity at LXRbeta in mouse BV2 cells assessed as upregulation of apoE protein expression at 10 uM after 48 hrs by Western blot analysis relative to vehicle-treated control; details: BV-2
[14] = target: T1, Oxysterols receptor LXR-beta (Mus musculus); test: Agonist activity at LXRbeta in mouse BV2 cells assessed as upregulation of apoE protein expression at 1 uM after 48 hrs by Western blot analysis relative to vehicle-treated control; details: BV-2
[15] = target: T1, Oxysterols receptor LXR-beta (Mus musculus); test: Agonist activity at LXRbeta in mouse BV2 cells assessed as upregulation of apoE protein expression at 0.1 uM after 48 hrs by Western blot analysis relative to vehicle-treated control; details: BV-2
[16] = target: T1, Oxysterols receptor LXR-beta (Mus musculus); test: Agonist activity at LXRbeta in mouse BV2 cells assessed as upregulation of ABCA1 protein expression after 12 to 48 hrs by Western blot analysis; details: BV-2
[17] = target: T1, Oxysterols receptor LXR-beta (Mus musculus); test: Agonist activity at LXRbeta in mouse BV2 cells assessed as upregulation of ABCA1 protein expression at 1 uM after 12 to 48 hrs by Western blot analysis; details: BV-2
[18] = target: T1, Oxysterols receptor LXR-beta (Mus musculus); test: Agonist activity at LXRbeta in mouse RAW264.7 cells assessed as upregulation of ABCA1 protein expression after 18 to 48 hrs by Western blot analysis
[19] = target: T1, Oxysterols receptor LXR-beta (Mus musculus); test: Agonist activity at LXRbeta in mouse RAW264.7 cells assessed as upregulation of ABCA1 protein expression at 1 uM after 18 to 48 hrs by Western blot analysis
[20] = target: T2, Oxysterols receptor LXR-beta (Homo sapiens); test: Agonist activity at human LXRbeta transfected in HEK293 cells at 1 uM after 24 hrs by luciferase reporter gene assay relative to vehicle-treated control
HepG2 [21] = test: Induction of cytoplasmic lipid accumulation in human HepG2 cells at 1 uM after 4 days by oil red O staining-based light microscopic analysis; details: hepg2, 96 h

Nc1ccc(C(=O)/C=C/c2c[nH]c3ccccc23)c(O)c1
fold change (FC) [1]: 1.76 | Activity [2]: 39%

CC(=O)Nc1ccc(C(=O)/C=C/c2ccc(C)s2)c(O)c1
fold change (FC) [1]: 1.08

Nc1ccc(C(=O)/C=C/c2ccc3ccccc3c2)c(O)c1
fold change (FC) [3]: 1.38 | fold change (FC) [4]: 1.11 | fold change (FC) [5]: 1.06 | Activity [6]: Dose-dependent effect | fold change (FC) [1]: 2.64 | Activity (HEK293): Non-toxic | Activity (HepG2 [7]): Non-toxic | Activity (BV-2): Non-toxic | Activity (RAW264.7): Non-toxic | Activity (HepG2 [8]): Toxic | Activity (HepG2 [9]): 19% | Activity (HepG2 [10]): -21% | Activity [11]: 44% | Activity [12]: Dose-dependent effect | Activity [2]: 37% | fold change (FC) [13]: 1.7 | fold change (FC) [14]: 1.4 | fold change (FC) [15]: 1.4 | Activity [16]: Dose-dependent effect | Activity [17]: Active | Activity [18]: Dose-dependent effect | Activity [19]: Active | fold change (FC) [20]: 2.22

COc1cc(N)ccc1C(=O)/C=C/c1ccc(C)s1
fold change (FC) [1]: 1.5

Nc1ccc(C(=O)/C=C/c2csc3ccccc23)c(O)c1
fold change (FC) [1]: 2.31 | Activity [2]: 42%

CCc1ccc(/C=C/C(=O)c2ccc(N)cc2O)cc1
fold change (FC) [1]: 1.73

O=c1cc(-c2ccc(-c3ccccc3)cc2)oc2cc(O)ccc12
fold change (FC) [1]: 1.15

Cc1ccc(CCC(=O)c2ccc(N)cc2O)o1
fold change (FC) [1]: 1.9

Nc1ccc(C(=O)CCc2ccc3ccccc3c2)c(O)c1
fold change (FC) [1]: 1.34

CC1=C(/C=C/C(C)=C\C=C\C(C)=C\C(=O)O)C(C)(C)CCC1
fold change (FC) [1]: 2.18

COc1cc(N)ccc1C(=O)/C=C/c1ccc(C)o1
fold change (FC) [1]: 1.2

COc1cc(N)ccc1C(=O)/C=C/c1ccc2ccccc2c1
fold change (FC) [1]: 0.88

Nc1ccc(C(=O)/C=C/c2cc(C(F)(F)F)cc(C(F)(F)F)c2)c(O)c1
fold change (FC) [1]: 1.12

CCOc1ccc(-c2cc(=O)c3ccc(N)cc3o2)cc1
fold change (FC) [1]: 1.37

CSc1ccc(/C=C/C(=O)c2ccc(N)cc2O)cc1
fold change (FC) [1]: 1.26

COc1cc(N(C)C)ccc1C(=O)/C=C/c1ccc(C)o1
fold change (FC) [1]: 1.57

Nc1ccc(C(=O)/C=C/c2cccc(Oc3ccccc3)c2)c(O)c1
fold change (FC) [1]: 1.76

O=c1cc(-c2ccc3ccccc3n2)oc2cc(O)ccc12
fold change (FC) [1]: 1.36

Nc1ccc(C(=O)/C=C/c2ccc(-c3ccccc3)cc2)c(O)c1
fold change (FC) [1]: 1.55

CN(CCOc1ccc(CC2SC(=O)NC2=O)cc1)c1ccccn1 (centres undefined)
fold change (FC) [1]: 1.19

O=c1cc(-c2cccc(Oc3ccccc3)c2)oc2cc(O)ccc12
fold change (FC) [1]: 1.17

COc1ccc(-c2ccc(/C=C/C(=O)c3ccc(N)cc3O)s2)cc1
fold change (FC) [1]: 1.09

COc1cccc(/C=C/C(=O)c2ccc(N)cc2O)c1
fold change (FC) [1]: 2.09 | Activity [2]: 33%

Nc1ccc(C(=O)/C=C/c2ccc(F)cc2)c(O)c1
fold change (FC) [1]: 1.36

Nc1ccc(C(=O)/C=C/c2ccc(Cl)cc2)c(O)c1
fold change (FC) [1]: 1.16

Nc1ccc(C(=O)/C=C/c2ccc3c(c2)OCO3)c(O)c1
fold change (FC) [1]: 1.92 | Activity [2]: 40%

O=C(O)c1ccc(-c2cc(=O)c3ccc(O)cc3o2)cc1
fold change (FC) [1]: 1.66 | Activity [2]: 18%

O=c1cc(-c2csc3ccccc23)oc2cc(O)ccc12
fold change (FC) [1]: 1.44

CCOc1ccc(/C=C/C(=O)c2ccc(N)cc2O)cc1
fold change (FC) [1]: 1.92 | Activity [2]: 16%

O=C(O)Cc1cccc(OCCCN(Cc2cccc(C(F)(F)F)c2Cl)CC(c2ccccc2)c2ccccc2)c1
fold change (FC) [3]: 1.42 | fold change (FC) [4]: 2.38 | fold change (FC) [5]: 1.53 | fold change (FC) [1]: 1.83 | Activity (HepG2 [21]): Toxic | Activity (HepG2 [9]): 242% | Activity (HepG2 [10]): 43% | Activity [2]: 55% | fold change (FC) [20]: 1.86

COc1cc(N(C)C)ccc1C(=O)/C=C/c1ccc2ccccc2c1
fold change (FC) [1]: 1.35

CCOc1ccc(/C=C/C(=O)c2ccc(N)cc2O)cc1OC
fold change (FC) [1]: 1.86 | Activity [2]: 23%

O=S(=O)(c1ccccc1)N(CC(F)(F)F)c1ccc(C(O)(C(F)(F)F)C(F)(F)F)cc1 [T091317]
Activity (HepG2 [21]): Toxic | Activity (HepG2 [10]): 175%

CCOc1ccc(/C=C/C(=O)c2ccc(N)cc2OC)cc1
fold change (FC) [1]: 1.06

Cc1ccc(-c2cc(=O)c3ccc(N)cc3o2)s1
fold change (FC) [1]: 1.47

COc1cc(/C=C/C(=O)c2ccc(N)cc2O)cc(OC)c1OC
fold change (FC) [1]: 0.98

CC(C)c1ccc(/C=C/C(=O)c2ccc(N)cc2O)cc1
fold change (FC) [1]: 2.05

O=c1cc(-c2ccc3ccccc3c2)oc2cc(O)ccc12
fold change (FC) [1]: 1.57 | Activity [2]: 7%

Cc1ccc(/C=C/C(=O)c2ccc(N)cc2O)s1
fold change (FC) [1]: 2 | Activity [2]: 37%

COc1ccc(-c2ccc(-c3cc(=O)c4ccc(O)cc4o3)s2)cc1
fold change (FC) [1]: 1.03

CC(C)OC(=O)C(C)(C)Oc1ccc(C(=O)c2ccc(Cl)cc2)cc1
fold change (FC) [1]: 1.1

Cc1ccc(/C=C/C(=O)c2ccc(N(C)C)cc2O)o1
fold change (FC) [1]: 1.02

CC(C)c1ccc(-c2cc(=O)c3ccc(O)cc3o2)cc1
fold change (FC) [1]: 1.22

Cc1ccc(-c2cc(=O)c3ccc(N)cc3o2)o1
fold change (FC) [1]: 1.3
